Measured values as given in article PMC10804372, “Degradation by Design: New Cyclin K Degraders from Old CDK Inhibitors” (ACS Chemical Biology, 2024).
pKd: −log10 of the molar value.

Tests used:
Cyclin K [1] = assay: Cyclin K levels by Western blot after single-concentration treatment; type: cell-based, human; conditions: HEK293T cells, 1 μM for 2 h; for Remaining Cyclin K (%): quantified from Western blots, mean ± SD, three independent experiments; for cyclin K degradation: Western blot
Description: (§1) HEK293T human […] kidney cells were cultured in DMEM (Gibco/Life Technologies), containing 25 mM D-glucose, 4 mM L-glutamine, and 1 mM sodium pyruvate, and supplemented with 10% (v/v) FBS and 1% nonessential amino acids (Gibco/Life Technologies). Cells were incubated at 37 °C in a humidified atmosphere with 5% CO2.
(§2) Cells were washed with PBS and lysed (20 mM HEPES pH 7.5, 10% glycerol, 0.4 M KCl, 0.4% Triton X-100, 15 mM EDTA, and 1× protease and phosphatase inhibitors). The insoluble fraction was removed by centrifugation. Protein quantification was performed using a Bradford assay and compared to a BSA calibration curve. Equal amounts of lysates were run on SDS–PAGE 4–12% Bis–Tris Protein Gels (NuPAGE, Thermo Fisher Scientific) and then transferred onto Immobilon-P PVDF Membrane (Millipore, IPVH00010) using a Mini Trans-Blot Cell (Bio-Rad, 1703930). The membranes were blocked with 5% bovine albumin serum (BSA) in Tris-buffered saline with Tween 20 (TBS-T) and incubated with primary antibodies overnight at 4 °C. The membranes were washed three times with TBS-T and incubated with HRP-conjugated secondary antibody (BioRad) for 2 h. Membranes were washed again three times with TBS-T before being developed using Pierce ECL Western Blotting Substrate (Thermo, 32106) and visualized using LI-COR. Antibodies were purchased from Cell Signaling Technology: anti-GAPDH (D4C6R) and anti-DDB1 (D4C8) or Bethyl Laboratories: anti-Cyclin K (A301-939A). The following HRP-linked secondary antibodies were used by dilution in 5% BSA/TBS-T: antirabbit IgG (BioRad, 5213–2504) and antimouse IgG (BioRad, 103005).
(§3) Unedited blots containing the marker lane are available on request. Western blots were quantified using ImageJ. Cyclin K levels were normalized using GAPDH as a loading control. DC50 values were calculated from concentration–response curves using nonlinear regression fit to a 4-parameter curve by GraphPad Prism.

PAMPA permeability = type: in vitro ADME; conditions: for Papp: pH 7.4, PAMPA, pH7.4, read-out: pH7.4 Papp x 10^-6
Cyclin K [2] = assay: Cyclin K degradation concentration-response (DC50, DMax) by Western blot; type: cell-based, human; conditions: HEK293T, Western blot quantification, 3 biological repeats; for DC50: read-out: CycK DC50
Description: With the aim of comparing the degradation ability of the new analogues, we derived DC50 values by using Western blotting (Table 5). […] This approach has been previously used to improve the potency of BCL6 degraders.[33] We therefore also measured CDK12 affinity using the KINOMEscan binding assay (Table 5).[34]
as §1, §2, §3

CDK12 = molecular target: T1, CDK12 (Homo sapiens, UniProt Q9NYV4); assay: KINOMEscan binding assay (Eurofins DiscoverX); conditions: for pKd: KINOMEscan
T1 construct: purchased Eurofins DiscoverX (KINOMEscan service)
T1 sequence (Q9NYV4 whole entry): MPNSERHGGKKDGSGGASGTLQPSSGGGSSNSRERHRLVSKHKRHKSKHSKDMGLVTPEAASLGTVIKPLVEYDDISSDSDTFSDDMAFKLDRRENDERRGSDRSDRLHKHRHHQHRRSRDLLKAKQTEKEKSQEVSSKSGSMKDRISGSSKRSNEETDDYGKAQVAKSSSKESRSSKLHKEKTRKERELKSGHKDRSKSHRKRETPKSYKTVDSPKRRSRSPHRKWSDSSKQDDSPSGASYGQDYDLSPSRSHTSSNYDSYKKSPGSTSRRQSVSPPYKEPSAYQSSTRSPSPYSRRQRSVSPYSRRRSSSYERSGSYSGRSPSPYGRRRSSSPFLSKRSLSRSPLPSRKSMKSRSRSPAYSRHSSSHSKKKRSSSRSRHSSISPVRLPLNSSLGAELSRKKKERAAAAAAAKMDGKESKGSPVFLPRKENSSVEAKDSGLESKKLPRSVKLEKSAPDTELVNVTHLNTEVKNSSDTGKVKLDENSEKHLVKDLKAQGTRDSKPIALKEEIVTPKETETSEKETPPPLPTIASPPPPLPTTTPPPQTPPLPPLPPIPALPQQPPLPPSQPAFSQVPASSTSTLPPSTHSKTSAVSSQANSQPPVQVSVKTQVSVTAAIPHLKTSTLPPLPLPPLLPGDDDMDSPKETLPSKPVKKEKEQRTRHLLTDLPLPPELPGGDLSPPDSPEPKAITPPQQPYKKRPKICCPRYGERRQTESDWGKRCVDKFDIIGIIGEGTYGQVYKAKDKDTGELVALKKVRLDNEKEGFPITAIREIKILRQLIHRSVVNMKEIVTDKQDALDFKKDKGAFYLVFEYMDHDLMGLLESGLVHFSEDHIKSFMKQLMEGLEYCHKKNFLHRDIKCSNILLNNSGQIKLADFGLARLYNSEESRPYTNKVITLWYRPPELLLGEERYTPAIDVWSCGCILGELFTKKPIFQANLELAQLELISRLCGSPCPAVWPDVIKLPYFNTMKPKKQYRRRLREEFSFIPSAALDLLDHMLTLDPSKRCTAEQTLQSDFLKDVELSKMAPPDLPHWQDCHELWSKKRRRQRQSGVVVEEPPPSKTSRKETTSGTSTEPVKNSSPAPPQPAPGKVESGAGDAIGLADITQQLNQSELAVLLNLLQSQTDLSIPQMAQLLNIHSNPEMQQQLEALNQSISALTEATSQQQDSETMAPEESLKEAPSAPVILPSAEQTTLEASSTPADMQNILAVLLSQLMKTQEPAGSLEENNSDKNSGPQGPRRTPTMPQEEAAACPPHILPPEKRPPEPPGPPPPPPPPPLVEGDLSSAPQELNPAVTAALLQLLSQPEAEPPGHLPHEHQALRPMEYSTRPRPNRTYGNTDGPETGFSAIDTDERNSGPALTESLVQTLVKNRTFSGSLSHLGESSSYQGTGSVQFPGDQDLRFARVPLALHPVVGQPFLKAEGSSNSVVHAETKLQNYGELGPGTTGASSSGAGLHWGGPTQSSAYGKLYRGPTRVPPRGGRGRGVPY

HEK293T cells = assay: Proteome-wide quantitation by mass spectrometry (TMT); type: cell-based, human; conditions: for log2FC compound 37: 1 uM 2h vs DMSO

CC[C@H](CO)Nc1nc(NCc2ccc(-c3ccc(O)cn3)cc2)c2ncn(C(C)C)c2n1 [compound 8]
Remaining Cyclin K (%) (Cyclin K [1]): 94 ± 9%
Papp (PAMPA permeability): < 0.3 ×10⁻⁶ cm/s

CC[C@H](CO)Nc1nc(NCc2ccc(-c3cc(=O)cc[nH]3)cc2)c2ncn(C(C)C)c2n1 [compound 15]
cyclin K degradation (Cyclin K [1]): total loss of degradation ability
Remaining Cyclin K (%) (Cyclin K [1]): 89 ± 11%
DMax (%) (Cyclin K [2]): >95%
DC50 (Cyclin K [2]): 18 nM
pKd (CDK12): 7.07
Papp (PAMPA permeability): < 0.2 ×10⁻⁶ cm/s

CC[C@H](CO)Nc1nc(NCc2ccc(-c3ncccc3O)cc2)c2ncn(C(C)C)c2n1 [compound 20]
cyclin K degradation (Cyclin K [1]): reduced degradation ability compared to CR8
Remaining Cyclin K (%) (Cyclin K [1]): 35 ± 3%
Papp (PAMPA permeability): < 0.4 ×10⁻⁶ cm/s

CC[C@H](CO)Nc1nc(NCc2ccc(C3CCCCC3)cc2)c2ncn(C(C)C)c2n1 [compound 23]
cyclin K degradation (Cyclin K [1]): degradation ability was significantly reduced
Remaining Cyclin K (%) (Cyclin K [1]): 74 ± 10%
Papp (PAMPA permeability): 12.7 ×10⁻⁶ cm/s

CC[C@H](CO)Nc1nc(NCc2ccc(N3CCOCC3)cc2)c2ncn(C(C)C)c2n1 [compound 25]
cyclin K degradation (Cyclin K [1]): only partial degradation
Remaining Cyclin K (%) (Cyclin K [1]): 41 ± 23%
PAMPA permeability (PAMPA permeability): comparable permeabilities
Papp (PAMPA permeability): 41 ×10⁻⁶ cm/s

CC[C@H](CO)Nc1nc(NCc2ccc(-c3cn(C)cn3)cc2)c2ncn(C(C)C)c2n1 [compound 30]
cyclin K degradation (Cyclin K [1]): decreased degradation ability
Remaining Cyclin K (%) (Cyclin K [1]): 38 ± 21%
Papp (PAMPA permeability): < 0.3 ×10⁻⁶ cm/s

CC[C@H](CO)Nc1nc(NCc2ccc(-c3cn[nH]c3)cc2)c2ncn(C(C)C)c2n1 [compound 31]
cyclin K degradation (Cyclin K [1]): complete loss of degradation
Remaining Cyclin K (%) (Cyclin K [1]): 93 ± 10%
PAMPA permeability (PAMPA permeability): low permeability
Papp (PAMPA permeability): < 0.2 ×10⁻⁶ cm/s

OCCC1CCCCN1c1cc(NCc2ccc(C3=CCOCC3)cc2)n2ncc(Br)c2n1 (stereo not drawn) [compound 37]
cyclin K degradation (Cyclin K [1]): only partial degradation
Remaining Cyclin K (%) (Cyclin K [1]): 32 ± 11%
DMax (%) (Cyclin K [2]): 75%
DC50 (Cyclin K [2]): 41 nM
fold better CDK12 affinity versus CR8/seliciclib-core analogue (CDK12; 36 vs 1, 37 vs 21): 25 fold
pKd (CDK12): 7.92
number of proteins showing at least a −0.5 log2 fold change (HEK293T cells; HEK293T, 1 μM, 2 h treatment): 28 proteins
cyclin K log2 fold decrease (HEK293T cells; HEK293T, 1 μM, 2 h vs DMSO): 0.75 log2 fold
log2FC compound 37 (HEK293T cells; protein ARF4): 0.5982
log2FC compound 37 (HEK293T cells; protein C1orf167): 0.8136
log2FC compound 37 (HEK293T cells; protein CBX6): -0.9913
log2FC compound 37 (HEK293T cells; protein CCNE2): 0.934
log2FC compound 37 (HEK293T cells; protein CCNK (Cyclin-K)): -0.7468
log2FC compound 37 (HEK293T cells; protein CD9): 0.636
log2FC compound 37 (HEK293T cells; protein CD59): 1.0368
log2FC compound 37 (HEK293T cells; protein CD63): 1.1474
log2FC compound 37 (HEK293T cells; protein CD151): 0.6898
log2FC compound 37 (HEK293T cells; protein CDKL5): 1.0373
log2FC compound 37 (HEK293T cells; protein CHCHD2): -1.0001
log2FC compound 37 (HEK293T cells; protein CHTOP): -0.8383
log2FC compound 37 (HEK293T cells; protein COPRS): 0.6
log2FC compound 37 (HEK293T cells; protein COX6B1): 0.6513
log2FC compound 37 (HEK293T cells; protein COX7A2): -1.2026
log2FC compound 37 (HEK293T cells; protein DCDC1): 1.1229
log2FC compound 37 (HEK293T cells; protein DDX56): -0.6203
log2FC compound 37 (HEK293T cells; protein DHX58): 0.8865
log2FC compound 37 (HEK293T cells; protein ECI1): 0.6918
log2FC compound 37 (HEK293T cells; protein EI24): 0.7719
log2FC compound 37 (HEK293T cells; protein FAM234A): 0.6256
log2FC compound 37 (HEK293T cells; protein FITM2): 0.6697
log2FC compound 37 (HEK293T cells; protein FYTTD1): -2.375
log2FC compound 37 (HEK293T cells; protein H2AC6): -2.0131
log2FC compound 37 (HEK293T cells; protein H2AC14): -1.9547
log2FC compound 37 (HEK293T cells; protein HES1): -0.614
log2FC compound 37 (HEK293T cells; protein HEY1): -0.6221
log2FC compound 37 (HEK293T cells; protein HMGN2): -0.636
log2FC compound 37 (HEK293T cells; protein KCTD1): 0.7125
log2FC compound 37 (HEK293T cells; protein LIPA): 0.6704
log2FC compound 37 (HEK293T cells; protein LPCAT3): 1.2861
log2FC compound 37 (HEK293T cells; protein LPIN2): 0.6164
log2FC compound 37 (HEK293T cells; protein LSM1): 0.8572
log2FC compound 37 (HEK293T cells; protein MBTPS2): 0.6567
log2FC compound 37 (HEK293T cells; protein MEIS1): -0.7346
log2FC compound 37 (HEK293T cells; protein MGARP): 0.6836
log2FC compound 37 (HEK293T cells; protein MSMO1): 0.6345
log2FC compound 37 (HEK293T cells; protein MT-ND4): 0.6222
log2FC compound 37 (HEK293T cells; protein NSA2): -1.3835
log2FC compound 37 (HEK293T cells; protein NXT2): 1.1373
log2FC compound 37 (HEK293T cells; protein PPP1CB): -0.7306
log2FC compound 37 (HEK293T cells; protein PPP1R15B): -0.7195
log2FC compound 37 (HEK293T cells; protein PRNP): 0.8396
log2FC compound 37 (HEK293T cells; protein RER1): 0.5962
log2FC compound 37 (HEK293T cells; protein RPF1): -0.9869
log2FC compound 37 (HEK293T cells; protein RPS14): -0.5979
log2FC compound 37 (HEK293T cells; protein RPS29): -0.7373
log2FC compound 37 (HEK293T cells; protein SIAE): 0.6299
log2FC compound 37 (HEK293T cells; protein SLC44A2): 0.8263
log2FC compound 37 (HEK293T cells; protein SNAI2): -1.0919
log2FC compound 37 (HEK293T cells; protein SURF6): -0.5977
log2FC compound 37 (HEK293T cells; protein TMSB4X): -0.7637
log2FC compound 37 (HEK293T cells; protein TOB1): -1.2431
log2FC compound 37 (HEK293T cells; protein TOB2): -0.8728
log2FC compound 37 (HEK293T cells; protein TVP23C): 0.6132
log2FC compound 37 (HEK293T cells; protein WHAMM): -1.0385
log2FC compound 37 (HEK293T cells; protein ZBTB17): 0.799
log2FC compound 37 (HEK293T cells; protein ZKSCAN2): -0.5989
log2FC compound 37 (HEK293T cells; protein ZNF92): -0.7406
log2FC compound 37 (HEK293T cells; protein ZNF385A): -0.6523
